# Measured values: patent publication US20020156032A1, “Inhibition of DNA methyltransferase” (priority 1994, published 2002)
# Experiments:
# [1] = tested on: Y1 cells; experiment: Anchorage independent growth in soft agar; format: cell-based; settings: 0-10 μM for 72 h, then soft agar without drug
# Experimental: Yl cells were maintained as monolayers in F-10 medium which was supplemented with 7.25% heat inactivated horse serum and 2.5% heat inactivated fetal calf serum (Immunocorp, Montreal). All other media and reagents for cell culture were obtained from GIBCO-BRL. Yl cells (1×10^6) were plated on a 150 mm dish (Nunc) 15 hours before transfection. The pZαM expression vector encoding the 5′ of the murine DNA MeTase cDNA (10 ug) was cointroduced into Yl cells with 1 ug of pUCSVneo as a selectable marker by DNA mediated gene transfer using the calcium phosphate protocol (Ausubel et al., 1988, In Current Protocols in Molecular Biology. Wiley and Sons, New York). Selection was initiated 48 hours after transfection by adding 0.25 mg/ml G418 (GIBCO-BRL) to the medium. G418 resistant cells were cloned in selective medium. […] Growth was scored as colonies containing >10 cells, 21 days after plating.
# To determine whether the expression of antisense to the DNA MeTase results in reversal of the tumorigenic potential the ability of the transfectants to grow in an anchorage independent fashion, which is considered an indicator of tumorigenicity, was also determined. […] Growth on soft agar was quantified by visual examination and presented graphically in FIG. 4C. […]
# [2] = target: T1, DNA MeTase (Mus musculus, UniProt P13864); experiment: Nearest neighbour analysis of methylated cytosines in CpG of total genomic DNA; format: cell-based, murine; settings: Y1 cells, 0-10 μM for 72 h
# T1 construct: endogenous in cells; host or cells: Y1 cells (parental, pZEM control transfectants and pZαM antisense transfectants)
# Experimental: To determine whether expression of antisense RNA to the DNA MeTase gene leads to a general reduction in the level of methylation of the genome, we resorted to “nearest neighbour” analysis using [α-32P]-dGTP as previously was performed. This assay enables the determination of the percentage of methylated cytosines residing in the dinucleotide sequence CpG (Razin et al., 1985, IN Biochemistry and Biology of DNA methylation, p. 239, Razin et al., (Ed), Allan R. Liss, Inc. N.Y.). […] Equal amounts of radioactivity were loaded on TLC phosphocellulose plates (Merck) and the 3′ mononucleotides were separated by chromatography in one dimension (iso-butyric acid: H2O:NH4OH in the ratio 66:33:1). The chromatograms were exposed to XAR™ film (Eastman-Kodak) and the spots corresponding to cytosine and 5-methylcytosine were scraped and counted in a β-scintillation counter.
# Transfectants and control DNAs were nicked with DNAaseI, nick translated with a single nucleotide [α-32P]-dGTP using DNA polymerase I and the labelled DNA was digested to 3′ mononucleotide phosphates with micrococal nuclease which cleaves DNA 3′ to the introduced α-32p. The [α-32P] labelled 5′ neighbours of dGMP were separated by chromatography on a TLC plate, the resulting spots for dCMP and dC^metMp were scraped and counted by liquid scintillation. […]
# [3] = tested on: Y1 cells; experiment: Viability by trypan blue staining under serum deprivation; format: cell-based; settings: 0-10 μM for 72 h, then 1% horse serum five days without drug
# Excerpt: Factors present in the serum are essential for the survival of many nontumorigenic cells. […] For example, the oncogene bc1-2 is not a stimulator of cell proliferation but rather causes inhibition of apoptosis. […] It was reasoned that as factors in the serum are known to act as survival factors for cells, an apoptotic program could be activated only when these factors are remove. To test whether pZαM transfectants undergo programmed cell death under serum deprived condition, the effects of serum starvation on these transfectants was studied. pZαM transfectants and control Yl pZEM transfectants (3×10^5 per well) were plated in low serum medium (1% horse serum) in six well plates, harvested every 24 hours and tested for viability by trypan blue staining (FIG. 7B).
# 1×10^5 Y1 cells were plated in growth medium. Twenty-four hours after plating, the medium was replaced with fresh medium containing various concentrations (0-10 μM) of 5 azaCdR (Sigma). The medium was removed and replaced with fresh medium containing 5 azaCdR every 12 h for a period of 72 h. Following 5 azaCdR treatment the cells were plated onto a six well dish in growth medium (100, 300, 500 cells per well) for cologinecity determinations, in soft agar for determining anchorage independent growth (3×10^3 cells per well) and in low serum (1% horse serum) for five days to determine viability under serum deprived conditions. […]
# T1 sequence (P13864 whole entry): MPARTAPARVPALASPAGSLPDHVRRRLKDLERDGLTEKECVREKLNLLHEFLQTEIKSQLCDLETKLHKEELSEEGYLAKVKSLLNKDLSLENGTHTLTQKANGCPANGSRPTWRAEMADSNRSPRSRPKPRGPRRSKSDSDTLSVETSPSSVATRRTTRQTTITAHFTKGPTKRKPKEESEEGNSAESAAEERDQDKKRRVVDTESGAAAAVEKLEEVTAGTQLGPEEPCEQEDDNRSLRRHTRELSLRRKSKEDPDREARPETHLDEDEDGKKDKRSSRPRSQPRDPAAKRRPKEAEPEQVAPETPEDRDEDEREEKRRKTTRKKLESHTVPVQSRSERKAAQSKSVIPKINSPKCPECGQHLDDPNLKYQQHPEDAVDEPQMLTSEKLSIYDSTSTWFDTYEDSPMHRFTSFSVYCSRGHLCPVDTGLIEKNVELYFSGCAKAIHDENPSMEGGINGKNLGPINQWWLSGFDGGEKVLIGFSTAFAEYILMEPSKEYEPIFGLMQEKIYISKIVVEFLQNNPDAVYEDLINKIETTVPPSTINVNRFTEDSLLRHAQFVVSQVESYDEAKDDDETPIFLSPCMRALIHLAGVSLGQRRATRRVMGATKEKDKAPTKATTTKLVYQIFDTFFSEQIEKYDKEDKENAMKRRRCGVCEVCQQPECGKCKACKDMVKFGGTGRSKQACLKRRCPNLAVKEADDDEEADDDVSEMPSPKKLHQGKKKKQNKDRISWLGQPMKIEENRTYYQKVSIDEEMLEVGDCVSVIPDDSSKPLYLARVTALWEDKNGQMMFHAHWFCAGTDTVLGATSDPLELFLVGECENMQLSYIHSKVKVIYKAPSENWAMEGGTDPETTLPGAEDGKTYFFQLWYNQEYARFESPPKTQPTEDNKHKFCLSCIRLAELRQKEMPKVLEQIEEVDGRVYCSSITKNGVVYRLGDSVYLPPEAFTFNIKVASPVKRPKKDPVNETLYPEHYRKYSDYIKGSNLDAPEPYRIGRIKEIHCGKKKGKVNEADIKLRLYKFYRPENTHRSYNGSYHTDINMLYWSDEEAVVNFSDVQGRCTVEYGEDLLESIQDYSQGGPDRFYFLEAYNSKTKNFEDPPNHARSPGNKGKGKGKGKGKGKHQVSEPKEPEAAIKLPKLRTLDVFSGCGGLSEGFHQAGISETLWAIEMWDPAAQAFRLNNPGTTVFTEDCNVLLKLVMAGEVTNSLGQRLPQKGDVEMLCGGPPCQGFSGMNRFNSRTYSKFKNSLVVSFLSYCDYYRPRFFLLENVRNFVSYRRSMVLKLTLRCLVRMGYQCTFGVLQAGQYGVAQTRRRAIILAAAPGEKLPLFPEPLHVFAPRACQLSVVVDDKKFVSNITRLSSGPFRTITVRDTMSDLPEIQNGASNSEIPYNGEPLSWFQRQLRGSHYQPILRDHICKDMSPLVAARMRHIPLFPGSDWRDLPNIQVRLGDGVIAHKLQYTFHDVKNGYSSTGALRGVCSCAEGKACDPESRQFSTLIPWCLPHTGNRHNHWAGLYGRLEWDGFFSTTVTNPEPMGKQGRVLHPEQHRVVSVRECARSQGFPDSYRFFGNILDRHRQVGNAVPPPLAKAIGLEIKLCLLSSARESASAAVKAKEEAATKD
structure (smiles),measurement,setting,value
Nc1ncn([C@H]2C[C@H](O)[C@@H](CO)O2)c(=O)n1 [5 azaCdR],growth on soft agar,[1],drastically inhibit the growth of Y1 cells on soft agar
same,level of non-methylated cytosine in CpG,[2],increase the level of non-methylated cytosine
same,viability of serum-starved cells,[3],decrease the viability of serum-starved cells
